# Measured values: EP0698347B1, “Food composition containing reuterin” (BIOGAIA BIOLOGICS AB, priority 1987, dated 1988)
# Columns and labels:
# E. coli [1] = assay: Co-culture of E. coli with and without L. reuteri 1063 on various substrates (Table 1); type: cell-based; set-up: % Inhibition: concentration or dose not given beside the values; conditions: for E. coli (CFU/ml) after 6 hours: substrate 20 mM (C6, C5) or 40 mM (C3), inoculum 5 x 10^6 CFU per ml E. coli; for % Inhibition: E. coli with versus without L. reuteri 1063 on the substrate, 6 hours
# Method: (§1) Conditions under which reuterin is produced have been determined. Reuterin is not produced under aerobic conditions (atmospheric oxygen concentration) but under reduced oxygen tension. It is produced when L. reuteri is cultured anaerobically (or semi-anaerobically in still culture) in the MIC assay medium described above containing 20-500 mM glycerol or glyceraldehyde in place of glucose as the major carbon and energy source. […] Twenty other substances, including hexoses, hexitols, pentoses, pentitols, disaccharides and a variety of phosphorylated and non-phosphorylated C3-substances, were tested for their ability to support reuterin production. […] The medium, containing a substrate at 20 mM (C6 and C5 substrates) or 40 mM (C3 substrates) concentrations, was inoculated with 5 x 10^6 colony-forming units (CFU) per ml E. coli with and without L. reuteri. Only glycerol and glyceraldehyde yielded reuterin. Also, réuterin production from glycerol is inhibited when glucose or another growth substrate is included in the production medium. The results shown in Table 2 indicate the percent inhibition in viable count of a 6.7 x 10^7 CFU per ml E. coli inoculum by supernatant fractions of L. reuteri grown on various indicated substrates at 40 mM concentrations.
# E. coli [2] = assay: Inhibition of E. coli by supernatant fractions of L. reuteri grown on various substrates (Table 2); type: cell-based; conditions: for % Inhibition: percent inhibition in viable count of 6.7 x 10^7 CFU per ml E. coli inoculum by supernatant fraction, substrate 40 mM; for Growth of E. coli presence of centrifuged culture medium CFU/ml after 6 hours: supernatant fraction of L. reuteri grown on the substrate at 40 mM, inoculum 6.7 x 10^7 CFU per ml E. coli
# Method: as §1
# [3] = Antimicrobial activity of pure commercial preparations; type: cell-based; conditions: concentrations as high as 0.125M
# Excerpt: Reuterin Is a Product of Glycerol Fermentation. Reuterin is a new product associated with the same type of heterolactic fermentation of glycerol that occurs in other Lactobacillus species. Reuterin can be isolated and identified as a product of glycerol fermentation by L. reuteri using HPLC.
# Bacillus megaterium = assay: Sensitivity to reuterin (Table 6); type: cell-based
# Method: (§2) Antimicrobial Activity. Reuterin is a broad-spectrum antimicrobial agent. Reuterin functions as a bacteriocide. […] The indicated concentrations (CFU per ml) of E. coli (solid lines) and L. reuteri 1063 (dashed lines) were inoculated (zero time) into the glycerol casein hydrolysate medium described above (o), the same medium minus citrate (•) and the same medium minus glycerol (X). The co-cultures were incubated semi-anaerobically (still cultures) at 37 degrees C with samples removed at the indicated intervals to determine the numbers (CFU per ml) of E. coli and L. reuteri present. […] All Gram-negative bacterial genera tested thus far (Escherichia, Shigella, Salmonella, Proteus and Pseudomonas) and all Gram positive genera tested (Staphylococcus, Streptococcus, Clostridium, Bacillus, Leuconostoc and Lactobacillus) are sensitive to reuterin. Somewhat higher concentrations of reuterin are required, however, to kill representatives of the latter three genera. A lower eucaryote, the yeast Saccharomyces cerevisiae, is also killed by reuterin. Also shown in this table is the ability of various species tested to stimulate reuterin production by the heterologous procedure.
# Clostridium sporogenes = assay: Sensitivity to reuterin (Table 6); type: cell-based
# Method: as §2
# [4] = test system: Leuconostoc mesenteroides; assay: Sensitivity to reuterin (Table 6); type: cell-based
# Method: as §2
# Pediococcus cerevisiae = assay: Sensitivity to reuterin (Table 6); type: cell-based
# Method: as §2
# Saccharomyces cerevisiae = assay: Sensitivity to reuterin (Table 6); type: cell-based
# Method: as §2
# L. reuteri = assay: Sensitivity of L. reuteri itself to reuterin; type: cell-based
# Method: as §2
# Tryoanosoma cruzi = assay: In vitro growth of the protozoan parasite; type: cell-based; conditions: final concentration of approximately 20 MIC units ml^-1
# E. coli [5] = assay: Bacteriocidal activity in E. coli / L. reuteri 1063 co-culture in glycerol medium (Figure 5); type: cell-based; conditions: glycerol present; co-culture with L. reuteri 1063, still culture, 37 degrees C; few hours after first 3-4 hours
# Method: as §2
# Escherichia coli = assay: Reuterin added to phage-infected bacterial cultures: host CFUs (Figure 13); type: cell-based; conditions: 10 units of reuterin; four hours; compared to the reuterin-free control culture
# Method: (§3) Antiviral Activity. Reuterin is also effective in preventing virus replication. […] It appears from preliminary results with ^14C-labeled glycerol that 4 ug of reuterin in 0.5 ml solution is about the equivalent of 1 unit of reuterin. After four hours, the number of colony-forming units (CFUs) of the host cell and the number of plaque-forming units (PFUs) of the viruses were assayed using standard microbiological techniques. With no reuterin added, the number of microbial cells had increased about 100-fold in the four-hour period. With E. coli, addition of 10 units of reuterin caused an approximate 100-fold decrease in the number of cells and more than a 1000-fold decrease in the number of PFUs of the lambda phage as compared to the reuterin-free control culture after incubation for four hours.
# Lambda phage = assay: Reuterin added to phage-infected bacterial cultures: virus PFUs (Figure 13); type: cell-based; conditions: 10 units of reuterin; four hours; compared to the reuterin-free control culture
# Method: as §3
# phage 8014-B2 = assay: Reuterin added to phage-infected bacterial cultures: virus PFUs versus host CFUs (Figure 13); type: cell-based, Lactobacillus plantarum; conditions: reuterin amounts at or greater than 25 units; four hours
# Method: as §3
# ground beef microflora = assay: Food preservation: ground beef microflora (Figure 14); conditions: 50 and 100 units per g; stored at 4 degrees C; through the 6-day test period
# Method: Reuterin is an effective food preservative. Ground beef purchased from a local supermarket was divided into 4 portions. One portion was untreated, the others were treated with 10, 50 and 100 units of reuterin per gram of the meat. All samples were stored at 4 degrees C with samples taken at indicated days for bacteriological analysis.
# Beef samples were removed and diluted 1:10 (1 g beef: 9 ml sterile H2O). Subsequent decimal dilutions were made as needed and samples were plated onto Difco Nutrient Agar. These samples were incubated at 27°C for 24 hours and counted as colony forming units per gram ground beef (CFU/g). […] With the higher levels of reuterin (50 and 100 units per g) the indigenous population of bacteria was reduced and remained greater than 4 log units lower than the control sample through the 6-day test period.
# E. coli K12 [6] = assay: Food preservation: E. coli-inoculated ground beef (Figure 15); conditions: 75 units (U) of reuterin per gram of beef; 4°C; 9-day incubation period
# Method: Ground beef purchased from a local supermarket was thoroughly inoculated and mixed with approximately 10^5CFU/ml of E. coli K12 cells. After mixing, the material was divided into 2 portions. One portion was an untreated control (no reuterin), the other portion received 75 units (U) of reuterin per gram of beef. Samples were stored at 4°C with portions removed at indicated times for bacteriological analysis. In this experiment the determination of viable cells (CFU/g beef) was conducted as described for Figure 14 except that Difco McConkey's Agar (relatively specific for coliform-like bacteria) was used.
# [7] = Characterizations of reuterin in crude preparations; type: physicochemical
# E. coli K12 [8] = assay: Minimum Inhibitory Concentration (MIC) procedure; type: cell-based; conditions: chemically synthesized as described by Hall, compared with biologically synthesized reuterin
# Method: Reuterin. When Lactobacillus reuteri cells capable of producing reuterin are placed under certain favorable conditions, reuterin is produced. A number of assays have been developed to detect and quantitate reuterin. A standard Minimum Inhibitory Concentration (MIC) procedure was adopted to detect reuterin and to elucidate factors affecting its production. E. coli K12 is used as the susceptible test microorganism and the assay is carried-out as follows. Overnight cultures of E. coli are harvested, washed twice with sterile 0.05 sodium phosphate buffer (pH 7.5), suspended in this buffer and adjusted to 60 percent transmission (A 420 nm) using a Spectronic 70 instrument. This suspension is diluted 1:100 and 0.1 ml aliquots are used to inoculate 1.0 ml of the MIC assay medium which contains (g/L): vitamin-free casein hydrolysate, 3; ammonium citrate, 1.9; citric acid, 0.63; KH2PO4, 12.6; MgSO4 (hepta-hydrate), 0.2; pH adjusted to 7.0 and 20 mM glucose added after sterilization. […] Relative reuterin concentrations (units reuterin) are then calculated as the reciprocal of the sample dilution preceding the dilution allowing visible growth of the indicator cells. Another assay relating MIC values to reuterin peak heights as determined by HPLC analyses (described below) has also been developed.
molecule,measurement,setting,value
OC[C@@H](O)[C@@H](O)[C@H](O)[C@H](O)CO [Mannitol],E. coli (CFU/ml) after 6 hours,E. coli [1]; Addition of L. reuteri 1063: +,2.7x10^8 CFU/ml
same,E. coli (CFU/ml) after 6 hours,E. coli [1]; Addition of L. reuteri 1063: -,2.3x10^8 CFU/ml
same,% Inhibition,E. coli [1],0%
OC[C@@H](O)[C@@H](O)[C@@H](O)CO [Ribitol],E. coli (CFU/ml) after 6 hours,E. coli [1]; Addition of L. reuteri 1063: +,4.9x10^6 CFU/ml
same,E. coli (CFU/ml) after 6 hours,E. coli [1]; Addition of L. reuteri 1063: -,5.7x10^6 CFU/ml
same,% Inhibition,E. coli [1],0%
CC(=O)C(=O)O [Pyruvate],% Inhibition,E. coli [2],0%
same,Growth of E. coli presence of centrifuged culture medium CFU/ml after 6 hours,E. coli [2],4.1x10^9 CFU/ml
O=C(CO)[C@@H](O)[C@H](O)[C@H](O)CO [Fructose],E. coli (CFU/ml) after 6 hours,E. coli [1]; Addition of L. reuteri 1063: +,3.0x10^8 CFU/ml
same,E. coli (CFU/ml) after 6 hours,E. coli [1]; Addition of L. reuteri 1063: -,2.1x10^8 CFU/ml
same,% Inhibition,E. coli [1],0%
O=CC(O)CO (stereo not shown) [Glyceraldehyde],E. coli (CFU/ml) after 6 hours,E. coli [1]; Addition of L. reuteri 1063: +,3.2x10^4 CFU/ml
same,E. coli (CFU/ml) after 6 hours,E. coli [1]; Addition of L. reuteri 1063: -,2.8x10^6 CFU/ml
same,% Inhibition,E. coli [1],99%
same,% Inhibition,E. coli [2],98.9%
same,Growth of E. coli presence of centrifuged culture medium CFU/ml after 6 hours,E. coli [2],6.1x10^5 CFU/ml
O=C(O)CCO [β-hydroxypropionic acid],antimicrobial activity,[3],essentially devoid of antimicrobial activity
O=C(CO)COP(=O)(O)O [Dihydroxyacetone-P],E. coli (CFU/ml) after 6 hours,E. coli [1]; Addition of L. reuteri 1063: +,4.1x10^6 CFU/ml
same,E. coli (CFU/ml) after 6 hours,E. coli [1]; Addition of L. reuteri 1063: -,3.4x10^6 CFU/ml
same,% Inhibition,E. coli [1],0%
same,% Inhibition,E. coli [2],0%
same,Growth of E. coli presence of centrifuged culture medium CFU/ml after 6 hours,E. coli [2],3.7x10^9 CFU/ml
O=C(O)[C@H](O)[C@@H](O)[C@H](O)[C@H](O)CO [Gluconate],E. coli (CFU/ml) after 6 hours,E. coli [1]; Addition of L. reuteri 1063: +,3.2x10^8 CFU/ml
same,E. coli (CFU/ml) after 6 hours,E. coli [1]; Addition of L. reuteri 1063: -,3.5x10^8 CFU/ml
same,% Inhibition,E. coli [1],0%
Phosphoglycerate,% Inhibition,E. coli [2],0%
same,Growth of E. coli presence of centrifuged culture medium CFU/ml after 6 hours,E. coli [2],3.3x10^9 CFU/ml
OC[C@@H](O)[C@@H](O)[C@H](O)[C@@H](O)CO [Sorbitol],E. coli (CFU/ml) after 6 hours,E. coli [1]; Addition of L. reuteri 1063: +,1.9x10^8 CFU/ml
same,E. coli (CFU/ml) after 6 hours,E. coli [1]; Addition of L. reuteri 1063: -,2.1x10^8 CFU/ml
same,% Inhibition,E. coli [1],0%
"OCCCO [1,3-propanediol]",antimicrobial activity,[3],essentially devoid of antimicrobial activity
"OCCC1OCCC(O)O1 (stereo not shown) [reuterin, 4-hydroxy-2-2'-hydroxyethyl-1:3-dioxan]",Sensitivity to reuterin,Bacillus megaterium,S
same,Sensitivity to reuterin,Clostridium sporogenes,S
same,Sensitivity to reuterin,[4],S
same,Sensitivity to reuterin,Pediococcus cerevisiae,S
same,Sensitivity to reuterin,Saccharomyces cerevisiae,S
same,concentrations at which L. reuteri itself is sensitive to reuterin,L. reuteri,≥ 32 MIC units
same,in vitro growth of the protozoan parasite,Tryoanosoma cruzi,inhibits in vitro growth
same,log decrease in viable E. coli cells,E. coli [5],7-8 log
same,decrease in the number of cells,Escherichia coli,about 100 fold
same,decrease in the number of PFUs of the lambda phage,Lambda phage,> 1000 fold
same,Lactobacillus CFU and PFU decreases due to reuterin,phage 8014-B2,even greater declines in the PFUs than in the CFUs
same,indigenous population of bacteria lower than the control sample,ground beef microflora,greater than 4 log units
same,viable cells (CFU/g beef) on McConkey's Agar,E. coli K12 [6],reduced the initial population of bacteria and kept these numbers low
same,stability to heat,"[7]; 100 degrees C for 10 minutes, particularly at pH values of 9.0 or higher",labile to heat
same,resistance to nucleases and proteases,[7]; crude preparations,resistant to nucleases and proteases
same,solubility in water,[7]; crude preparations,highly soluble in water
same,MIC value,E. coli K12 [8],idential MIC value as the biologically synthesized reuterin
C=C(OP(=O)(O)O)C(=O)O [Phosphoenolpyruvate],% Inhibition,E. coli [2],0%
same,Growth of E. coli presence of centrifuged culture medium CFU/ml after 6 hours,E. coli [2],3.7x10^9 CFU/ml
O=C[C@H](O)[C@@H](O)[C@H](O)CO [Xylose],E. coli (CFU/ml) after 6 hours,E. coli [1]; Addition of L. reuteri 1063: +,6.9x10^7 CFU/ml
same,E. coli (CFU/ml) after 6 hours,E. coli [1]; Addition of L. reuteri 1063: -,6.7x10^7 CFU/ml
same,% Inhibition,E. coli [1],0%
OC[C@@H](O)C(O)[C@H](O)CO [Arabitol],E. coli (CFU/ml) after 6 hours,E. coli [1]; Addition of L. reuteri 1063: +,2.9x10^6 CFU/ml
same,E. coli (CFU/ml) after 6 hours,E. coli [1]; Addition of L. reuteri 1063: -,2.7x10^6 CFU/ml
same,% Inhibition,E. coli [1],0%
O=P(O)(O)OC(CO)CO [β-Glycerol-P],E. coli (CFU/ml) after 6 hours,E. coli [1]; Addition of L. reuteri 1063: +,6.5x10^6 CFU/ml
same,E. coli (CFU/ml) after 6 hours,E. coli [1]; Addition of L. reuteri 1063: -,5.1x10^6 CFU/ml
same,% Inhibition,E. coli [1],0%
same,% Inhibition,E. coli [2],0%
same,Growth of E. coli presence of centrifuged culture medium CFU/ml after 6 hours,E. coli [2],3.2x10^9 CFU/ml
